This note sets out measurements from patent US20130310411A1, “NOVEL ACRIDINE DERIVATIVES” (PHARMINOX LIMITED, priority 2010, published 2013).

Molecules are shown by their SMILES.

The subject of assay [1] is HT-29: human adenocarcinoma cell line. Put plainly: Growth inhibition assay (MTT). In kind it is cell-based. As to conditions: HT-29 cells, 96 hr incubation. The procedure: Growth inhibition was measured in the HT-29: human adenocarcinoma cell line using the 3-(4,5-Dimethylthiazol-2-yl)-2,5-diphenyltetrazolium bromide (MTT) assay:
Briefly, between 1500 and 2200 cells were seeded into the wells of 96-well microtiter plates and allowed to attach overnight. Test compounds were solubilised at 10 mM in dimethyl sulfoxide (DMSO), diluted in tissue culture media and added to cells at final concentrations of 30, 10, 3, 1, 0.3, 0.1, 0.03 and 0.01 μM in triplicate. Following an incubation period of 96 hr MTT was added to a final concentration of 400 μg/ml and the plates incubated for a further 4 hr. The media/MTT was then aspirated and 150 μl DMSO added. Plates were shaken briefly and the absorbance at 550 nm read using a Labtech LT-4000 plate reader. An extra plate was seeded and the MTT assay was carried out on this plate at the time of drug addition to ascertain an initial absorbance value.
Dose response curves were plotted and the GI50 values (concentration required to inhibit cell growth by 50%) determined for each agent where the absorbance value for control cells minus the initial absorbance was taken as 100% growth.

In assay [2] the test system is hTel, 5′ biotin-d[AG3(T2AG3)3]3′ (quadraplex) versus duplex, 5′biotind[CGA3T3C2TCTGA3T3CG]3′. Put plainly: Surface Plasmon Resonance Assay (SPR). In kind it is binding. As to conditions: HEPES buffer pH 7.3, 25° C. The procedure: Biosensor experiments were conducted in filtered, degassed HEPES buffer (10 mM HEPES, 100 mM KCl, 3 mM EDTA, 0.000 05 v/v of 10% P20 BIACORE surfactant, pH 7.3) at 25° C. The 5′-biotin labeled DNA sequences (Integrated DNA Technologies) were HPLC purified and comprise the following sequences: hTel, ^5′ biotin-d[AG3(T2AG3)3]^3′; duplex, ^5′biotind[CGA3T3C2TCTGA3T3CG]^3′. The experiments were conducted upon a BIAcore 2000 optical biosensor instrument (BIAcore Inc.). Flow cell 1 was left blank as a reference, while flow cells 2-4 were immobilized with DNA on a streptavidin-derivatized gold chip (SA chip from BIAcore) by manual injection of DNA stock solutions (flow rate of 1 μL/min) until the desired value of DNA response was obtained (350-400 RU). Typically, a series of different ligand concentrations (1 nM to 10 μM from 20 mM DMSO stock) were injected onto the chip (flow rate of 50 μL/min, 5-10 min) until a constant steady-state response was obtained followed by a dissociation period (buffer, 10 min). After every cycle, the chip surface was regenerated (20 s injection of 10 mM glycine solution, pH 2.0) followed by running buffer flow. The data were processed using BIAevaluation (BIAcore Inc.) and Kaleidagraph (Synergy Software) software for nonlinear least-squares optimization of the binding parameters.

Take `c1ccc2c(c1)Oc1c3ccccc3nc3cccc-2c13` [Example 1, Chromeno[4,3,2-kl]acridine]: halving of growth in assay [1] (GI50) required 10.4 µM. Take `C[n+]1c2ccccc2c2c3c(cccc31)-c1ccccc1O2.[Cl-]` [Example 2, 8-Methylchromeno[4,3,2-kl]acridin-8-ium chloride]: the “Quadraplex:duplex ratio” value in assay [2] turned out to be 4.75. In addition, in assay [1], the GI50 – broadly, the concentration giving 50% growth inhibition – was determined as 0.93 µM. Turning to `C[n+]1c2ccccc2c2c3c(cccc31)-c1ccccc1S2` [Example 3, 8-methylthiochromeno[4,3,2-kl]acridin-8-ium chloride], halving of growth in assay [1] (GI50) required 3.04 µM. Consider `[O-][n+]1c2ccccc2c2c3c(cccc31)-c1ccccc1O2` [Example 4, chromeno[4,3,2-kl]acridine 8-oxide], for which the “Quadraplex:duplex ratio” value in assay [2] is recorded as 7.5. This compound came in with a GI50 in assay [1] of more than 30 µM.

In assay [1], `CCOC(=O)C[n+]1c2ccccc2c2c3c(cccc31)-c1ccccc1O2` [Example 5, 8-(2-ethoxy-2-oxoethyl)chromeno[4,3,2-kl]acridin-8-ium iodide] yielded a GI50 of 9.88 µM. Still for that read-out and setting: under `CC(=O)Nc1ccc2c(c1)-c1cccc3nc4ccccc4c(c13)O2` [Example 6, N-(chromeno[4,3,2-kl]acridin-3-yl)acetamide] stands 9.39 µM; under `CC(=O)Nc1ccc2c(c1)-c1cccc3c1c(c1ccccc1[n+]3C)O2` [Example 7, acetamido-8-methylchromeno[4,3,2-kl]acridin-8-ium chloride], 0.95 µM; under `COc1ccc2c(c1)-c1cccc3c1c(c1ccccc1[n+]3C)S2` [Example 8, 3-methoxy-8-methylthiochromeno[4,3,2-kl]acridin-8-ium chloride], 1.04 µM. On the same count and under the same terms, in the case of `COc1cccc2c1-c1cccc3c1c(c1ccccc1[n+]3C)S2` [Example 9, 4-methoxy-8-methylthiochromeno[4,3,2-kl]acridin-8-ium iodide] it was 0.95 µM. As for `COc1ccc2c(c1)-c1cccc3c1c(c1ccc(OC)cc1[n+]3C)S2` [Example 10, 3,10-dimethoxy-8-methylthiochromeno[4,3,2-kl]acridin-8-ium chloride], the “Quadraplex:duplex ratio” value in assay [2] amounted to 7.0. The compound also gave a GI50 in assay [1] of 0.27 µM. For `COC(=O)c1ccc2c(c1)Sc1c3ccc(OC)cc3[n+](C)c3cccc-2c13` [Example 11, 10-methoxy-2-(methoxycarbonyl)-8-methylthiochromeno[4,3,2-kl]acridin-8-ium chloride], in that order: 17.4 and 0.76 µM. The like results for `COC(=O)c1cccc2c1-c1cccc3c1c(c1ccc(OC)cc1[n+]3C)S2` [Example 12, 10-methoxy-4-(methoxycarbonyl)-8-methylthiochromeno[4,3,2-kl]acridin-8-ium chloride] were, in that order, more than 53 and 4.49 µM. Take `CC(=O)Oc1ccc2c(c1)-c1cccc3c1c(c1ccccc1[n+]3C)S2` [Example 13, 3-acetoxy-8-methylthiochromeno[4,3,2-kl]acridin-8-ium chloride]: the GI50 in assay [1] came to 6.17 µM. Take `C[n+]1c2ccccc2c2c3c(cccc31)-c1cc(O)ccc1S2` [Example 14, 3-hydroxy-8-methylthiochromeno[4,3,2-kl]acridin-8-ium chloride]: in assay [2], the “Quadraplex:duplex ratio” value was more than 80. This compound yielded a GI50 in assay [1] of 3.67 µM.

Take `COC(=O)c1ccc2c(c1)Sc1c3ccccc3[n+](C)c3cccc-2c13` [Example 15, 2-(methoxycarbonyl)-8-methylthiochromeno[4,3,2-kl]acridin-8-ium chloride]: the “Quadraplex:duplex ratio” value in assay [2] stood at 18.1. This compound registered a GI50 in assay [1] of 2.99 µM. Consider `COC(=O)c1cccc2c1-c1cccc3c1c(c1ccccc1[n+]3C)S2` [Example 16, 4-(methoxycarbonyl)-8-methylthiochromeno[4,3,2-kl]acridin-8-ium iodide], for which the GI50 in assay [1] was determined as 12.8 µM. As to `COCOc1ccc2c(c1)-c1cccc3nc4ccccc4c(c13)S2` [Example 17, 3-(methoxymethoxy)thiochromeno[4,3,2-kl]acridine], in assay [1], halving of growth (GI50) required 1.88 µM.

Regarding `CC(=O)Nc1cccc2c1-c1cccc3c1c(c1ccccc1[n+]3C)S2` [Example 18, 4-acetamido-8-methylthiochromeno[4,3,2-kl]acridin-8-ium iodide], it took 9.66 µM to inhibit growth in assay [1] by half (GI50). This GI50 lies about 5.1-fold higher than the previous one. Compound `COc1ccc2c3c4c(c(OC)ccc4[n+](C)c2c1)-c1ccccc1S3` [Example 19, 5,10-dimethoxy-8-methylthiochromeno[4,3,2-kl]acridin-8-ium iodide] displayed a 50% growth inhibitory concentration (GI50) in assay [1] of 1.03 µM. `COC(=O)c1ccc2c(c1)-c1cccc3c1c(c1ccccc1[n+]3C)S2` [Example 20, 3-(methoxycarbonyl)-8-methylthiochromeno[4,3,2-kl]acridin-8-ium iodide and chloride] registered a GI50 in assay [1] of 6.46 µM. This GI50 lies about 6.3-fold higher than the previous one.
